Tests used:
[1] = target: T1, HMG-CoA Reductase (Rattus norvegicus, UniProt P51639); experiment: biochemical; conditions: read-out: HMG-CoA Reductase Inhibition %
T1 sequence (P51639 1-887): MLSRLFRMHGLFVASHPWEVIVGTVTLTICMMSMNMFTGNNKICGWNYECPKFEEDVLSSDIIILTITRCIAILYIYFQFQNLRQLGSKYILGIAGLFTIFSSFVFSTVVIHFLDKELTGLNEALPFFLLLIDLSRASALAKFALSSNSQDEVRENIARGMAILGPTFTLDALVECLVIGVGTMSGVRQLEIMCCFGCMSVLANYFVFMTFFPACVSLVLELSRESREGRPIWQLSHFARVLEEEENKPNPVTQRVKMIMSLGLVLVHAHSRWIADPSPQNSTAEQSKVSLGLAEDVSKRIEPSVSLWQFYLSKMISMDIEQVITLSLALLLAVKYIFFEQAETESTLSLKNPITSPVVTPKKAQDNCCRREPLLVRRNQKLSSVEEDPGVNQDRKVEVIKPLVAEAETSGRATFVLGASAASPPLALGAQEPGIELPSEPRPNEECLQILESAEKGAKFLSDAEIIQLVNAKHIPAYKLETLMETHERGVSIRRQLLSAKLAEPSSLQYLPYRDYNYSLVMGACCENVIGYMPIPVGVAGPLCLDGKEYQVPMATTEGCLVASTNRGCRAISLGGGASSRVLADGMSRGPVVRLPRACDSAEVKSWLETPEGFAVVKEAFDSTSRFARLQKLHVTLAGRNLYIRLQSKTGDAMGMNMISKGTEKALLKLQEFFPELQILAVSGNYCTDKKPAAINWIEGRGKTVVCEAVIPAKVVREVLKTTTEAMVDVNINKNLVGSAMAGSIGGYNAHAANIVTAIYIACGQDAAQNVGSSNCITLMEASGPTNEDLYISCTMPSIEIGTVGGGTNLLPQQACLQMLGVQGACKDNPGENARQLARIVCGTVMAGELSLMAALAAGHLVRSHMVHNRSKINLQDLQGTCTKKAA
Protocol: Determination of Inhibitory Activity on HMG-CoA Reductase
The inhibitory effect on HMG-CoA Reductase of each of representative examples of the 4-fluorobiphenyl derivatives prepared in the above-discussed examples was determined in accordance with the method described in Journal of Biological Chemistry (J. Biol. Chem.) Vol. 234, page 2835 (1959).

[2] = test system: biosynthesis of sterol; experiment: Determination of Inhibition of Sterol Synthesis (14C-acetic acid, liver, after oral dosing); format: in vivo, SD rat; conditions: 14C-acetic acid five hours later
Protocol: Determination of Inhibition of Sterol Synthesis
Representative compounds (0.3 mg/5 ml/kg) suspended in a 5% arabic gum solution were orally given to SD rate weighing 150 to 200 g.
Five hours later, ^14 C-acetic acid (100 μCi/kg) was intraperitoneally injected, and furthermore one hour later, liver was removed to determine the inhibitory activity of each of the compounds on the biosynthesis of sterol.

[3] = Determination of Partition Coefficient (n-octanol/phosphoric acid buffer pH 7.0); format: physicochemical; conditions: P=Co/Cw; for logD: n-octanol/phosphate buffer
Protocol: Determination of Partition Coefficient
The partition coefficient of each of representative compounds synthesized in the above-mentioned Examples was determined in accordance with the method by Hansh et al. (J. Am. Chem. Soc., 86, 5175 (1964)).
More specifically, the compound to be tested was dissolved in either an n-octanol solution which was saturated with a phosphoric acid buffer solution of pH 7.0 (Solution A) or a phosphoric acid buffer solution of pH 7.0 saturated with n-octanol (Solution B).
5 ml of the solution (Solution A or Solution B) in which the compound was dissolved and 5 ml of the solution (Solution B or Solution A) in which the compound was not dissolved were placed in a screw vial tube, and shaken for 30 minutes. This mixed solution was centrifuged for 15 minutes, and was then allowed to stand. The mixed solution was separated into two phases, that is, a water phase and a n-octanol phase.
The concentration of the compound in the water phase was determined by the UV method, and the concentration of the compound in the n-octanol phase was determined by deducting the concentration of the compound in the water phase from the concentration of the compound in the initially mixed solution (Solution A and Solution B).
The partition coefficient of the compound was calculated in accordance with the following formula:
Partition coefficient (P)=Co/Cw
wherein Co is the concentration of the compound in the n-octanol phase, and Cw is the concentration of the compound in the water phase.

[4] = test system: cholesterol in the blood; conditions: cited from earlier work
[5] = target: T2, HMG-CoA Reductase (Homo sapiens, UniProt P04035); conditions: cited from earlier work
T2 sequence (P04035 1-888): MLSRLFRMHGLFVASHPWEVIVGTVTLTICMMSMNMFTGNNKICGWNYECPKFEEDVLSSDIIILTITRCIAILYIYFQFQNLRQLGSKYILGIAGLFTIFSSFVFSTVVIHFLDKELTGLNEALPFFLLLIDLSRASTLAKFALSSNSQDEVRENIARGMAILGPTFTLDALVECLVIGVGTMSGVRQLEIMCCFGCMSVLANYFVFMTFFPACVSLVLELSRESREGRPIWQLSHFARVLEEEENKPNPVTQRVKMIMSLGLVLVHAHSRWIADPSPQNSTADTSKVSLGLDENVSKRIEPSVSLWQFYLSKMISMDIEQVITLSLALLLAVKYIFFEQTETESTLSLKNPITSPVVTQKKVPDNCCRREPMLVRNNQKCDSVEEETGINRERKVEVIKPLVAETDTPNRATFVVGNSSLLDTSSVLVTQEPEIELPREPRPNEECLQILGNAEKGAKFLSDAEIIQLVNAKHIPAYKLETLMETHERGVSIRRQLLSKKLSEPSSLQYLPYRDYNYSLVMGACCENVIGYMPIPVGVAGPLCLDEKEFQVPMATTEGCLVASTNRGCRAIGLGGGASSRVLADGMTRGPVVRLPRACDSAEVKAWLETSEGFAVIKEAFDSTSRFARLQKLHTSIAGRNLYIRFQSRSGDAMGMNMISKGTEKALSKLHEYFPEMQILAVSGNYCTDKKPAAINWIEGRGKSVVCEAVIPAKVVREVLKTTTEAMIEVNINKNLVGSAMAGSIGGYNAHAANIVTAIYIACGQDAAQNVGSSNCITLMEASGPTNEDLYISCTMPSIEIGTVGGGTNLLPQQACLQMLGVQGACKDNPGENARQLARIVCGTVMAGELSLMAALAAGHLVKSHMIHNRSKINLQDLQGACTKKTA

[6] = referred to JAMA (Japanese Edition) October 1991 Supplement, pages 42-47; cited from earlier work
[7] = cited from earlier work
[8] = test system: liver cells and non-liver cells; conditions: cited from earlier work
[9] = test system: cells of smooth muscles; conditions: advantage over pravastatin; cited from earlier work
[10] = literature reports; cited from earlier work

SMILES | inhibition at 0.1 µM [1] | Sterol Synthesis Inhibition % ([2]; Administered amount 0.3 mg/kg) | logD [3] | cholesterol lowering effect [4] | other results
COCCOc1cc(-c2ccc(F)cc2)c(/C=C/C(O)CC(O)CC(=O)[O-])c(C(C)C)c1.[Na+] (centres unmarked) | 96% | 30% | 0.716 | – | –
COCCOCCOc1cc(-c2ccc(F)cc2)c(/C=C/C(O)CC(O)CC(=O)O)c(C(C)C)c1 (centres unmarked) | – | – | 0.519 | – | –
CC(C)c1cc(OCc2ccccn2)cc(-c2ccc(F)cc2)c1/C=C/C(O)CC(O)CC(=O)O (centres unmarked) | 95% | – | 1.43 | – | –
CC(C)c1cc(OCc2cccnc2)cc(-c2ccc(F)cc2)c1/C=C/C(O)CC(O)CC(=O)O (centres unmarked) | 95% | – | 1.41 | – | –
CC(C)c1cc(OCc2ccncc2)cc(-c2ccc(F)cc2)c1/C=C/C(O)CC(O)CC(=O)O (centres unmarked) | 96% | – | 1.48 | – | –
CC(C)c1cc(OCCO)cc(-c2ccc(F)cc2)c1/C=C/C(O)CC(O)CC(=O)[O-].[Na+] (centres unmarked) | 98% | 40% | 0.114 | – | –
CC[C@H](C)C(=O)O[C@H]1CCC=C2C=C[C@H](C)[C@H](CC[C@@H]3C[C@@H](O)CC(=O)O3)[C@H]21 [ML-236B, Mevastatin] | – | – | – | capable of lowering the concentration of cholesterol in the blood | inhibitory effect on HMG-CoA reductase [5]: competitive inhibitory effect on HMG-CoA reductase
CC[C@H](C)C(=O)O[C@H]1C[C@H](O)C=C2C=C[C@H](C)[C@H](CC[C@@H](O)C[C@@H](O)CC(=O)O)[C@H]21 [Pravastatin] | 88% | – | -0.444 | – | Sterol Synthesis Inhibition % ([2]; Administered amount 1 mg/kg): 16%; Partition Coefficient [3]: 0.36; Partition Coefficient (literature) [6]: 0.34; water-solubility / lipid-solubility [7]: highly water-soluble; incorporation into liver / non-liver cells [8]: not incorporated into histoblasts other than those of liver
CCC(C)(C)C(=O)O[C@H]1C[C@@H](C)C=C2C=C[C@H](C)[C@H](CC[C@@H]3C[C@@H](O)CC(=O)O3)[C@H]21 [Simvastatin] | – | 1% | – | strong cholesterol lowering effect | Sterol Synthesis Inhibition % ([2]; Administered amount 1 mg/kg): 41%; Partition Coefficient ([3]; ring-opened type sodium salt): 74; Partition Coefficient (literature) [6]: 75.8; cytostatic function with respect to the cells of smooth muscles [9]: antiarteriosclerosis effect because of its cytostatic function with respect to the cells of smooth muscles
CC[C@H](C)C(=O)O[C@H]1C[C@@H](C)C=C2C=C[C@H](C)[C@H](CC[C@@H]3C[C@@H](O)CC(=O)O3)[C@H]21 [lovastatin] | – | – | – | strong cholesterol lowering effect | side effects [10]: myositis and sleep disorder; water-solubility / lipid-solubility [7]: highly lipid-soluble; incorporation into liver / non-liver cells [8]: transferred into both liver cells and non-liver cells
